The results in this text go back to US11464795B2, “Saponin compound targeting PD-1 and application thereof” (EAST CHINA UNIVERSITY OF SCIENCE AND TECHNOLOGY, priority 2017, dated 2022).

For test [1], the target named is T1, recombinant human PD-1 protein (Homo sapiens, UniProt Q15116).
T1 construct: amino acids 34-150 of human PD-1; made in house; host or cells: E. coli BL21 (DE3), pET-28a
The test can be described thus: SPR determination of binding constants between saponin natural products and PD-1 protein. The settings on record: PD-1 coupled to CM7 chip, steady-state fitting, read-out: Binding affinity KD. How it is done:
Surface plasmon resonance (SPR) was used to determine the binding affinity between natural products and PD-1 protein. Specific experimental steps are as follows: Firstly, the purified protein was exchanged into 50 mM Hepes, pH 8.0, 250 mM NaCl, 1 mM DTT buffer, and diluted to 50 μg/ml with sodium acetate pH 4.5. The protein was coupled to CM7 chip with a coupling kit for 600 s at a flow rate of 10 μl/min. The final coupling amount was about 13000 RU. After the coupling was completed, the CM7 chip was equilibrated to a stable state in a buffer solution (1.05×PBS, 0.05% P20). […] The final data was analyzed by BIAevaluation2.0 software, and KD values were obtained by steady-state fitting.

Test [2] addresses T2, human PD-1 binding to human PD-L1 (Homo sapiens, UniProt Q15116).
T2 construct: amino acids 34-150 of human PD-1; made in house; PD-L1: purchased from Beijing Yiqiao Shenzhou Biotechnology Co., Ltd., no catalogue number
Description: SPR competition of compounds with PD-L1 protein for binding PD-1. The settings on record: PD-L1 on CM5 chip, compound pre-incubated with 3 μM PD-1 protein. The protocol: Based on the results in the above examples, the present inventors investigated whether the compound can competite with PD-L1 for binding PD-1, and thus block PD-1 from binding PD-L1. PD-L1 protein was purchased from Beijing Yiqiao Shenzhou Biotechnology Co., Ltd. Specific experimental steps are as follows: 50 μg/ml PD-L1 protein was coupled to CM5 chip by amino coupling method. The coupling amount was about 3780 RU. Compounds of different concentrations were incubated with 3 μM PD-1 protein on ice for 30 min, and flowed across the surface of the chip along with the running buffer (1.05×PBS, 0.05% P20, 1% DMSO) at a flow rate of 30 μL/min, for binding time of 90 s and dissociation time of 120 s. PD-1 protein bound to PD-L1 protein on the chip decreases as the concentration of the compound increases, therefore, the response value decreases. The results of this experiment indicate that compounds can block PD-1 from binding PD-L1.

In test [3] the test system is Jurkat T cells. The test can be described thus: Detection of IL-2 secretion in T cells by ELISA (BxPC-3 / Jurkat T co-culture). The class given is cell-based. The following applies: for Increase of the amount of IL-2 produced by Jurkat T cells: 50 μM compound, BxPC-3 tumor cells and Jurkat T cells co-cultured 3:1, 48 h, ELISA; for Restoration of the ability of depleted Jurkat T cells to secrete IL-2: FIG. 5 legend, result in words. The protocol:
The inventors selected several compounds for the evaluation experiment of cell function. We co-cultured stimulated BxPC-3 tumor cells and activated Jurkat T cells in a 96-well plate at a ratio of 3:1. Jurkat T cells were cultured alone as a negative control. 50 μM of compound was added into the experimental group, and a D-hank's solution with the same DMSO content was used as a negative control. Each group was incubated in a carbon dioxide cell incubator for 48 h. The supernatant medium was collected and detected for the amount of IL-2 by an ELISA kit. Experiments were performed in triplicate. After tumor cells were co-cultured with T cells, the amount of IL-2 produced by the T cells was suppressed by about 55%. After 50 μM of compound 6 was added, the amount of IL-2 produced by Jurkat T cells can be increased by about 30%; after 50 μM of compound 8 was added, the amount of IL-2 produced by Jurkat T cells can be increased by about 1^7%; after 50 μM of compound 10 was added, the amount of IL-2 produced by Jurkat T cells can be increased by about 30%; after 50 μM of compound 11 was added, the amount of IL-2 produced by Jurkat T cells can be increased by about 12%; and after 50 μM of compound 13 was added, the amount of IL-2 produced by Jurkat T cells can be increased by about 23%. Such effects can be achieved in three repeated experiments. The results of this experiment indicate that the compounds can, to a certain extent, restore the function of T cells.
In general terms: In an ELISA, binding on a coated surface is turned into a signal by an enzyme label.

T2 sequence (Q15116 34-150): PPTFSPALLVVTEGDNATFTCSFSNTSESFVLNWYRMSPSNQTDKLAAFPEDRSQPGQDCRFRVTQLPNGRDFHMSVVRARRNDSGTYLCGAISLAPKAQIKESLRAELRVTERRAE
T1 sequence (Q15116 34-150): as above

One may read the Kd as the constant that tells how readily two partners part at equilibrium. Turning to `CC1(C)CC[C@]2(C(=O)O[C@@H]3O[C@H](CO)[C@@H](O)[C@H](O)[C@H]3O)CC[C@]3(C)C(=CC[C@@H]4[C@@]5(C)CC[C@H](OC6O[C@H](C(=O)O)[C@@H](O)[C@H](O)[C@H]6OC6O[C@H](CO)[C@@H](O)[C@H](O)[C@H]6O)C(C)(C)[C@@H]5CC[C@]43C)[C@@H]2C1` (stereo partly drawn) [Compound 1], the Kd in test [1] is 2230 nM. The “Blocking of human PD-1 binding to human PD-L1” value (“Blocking of human PD-1 binding” for short) in test [2] is listed as “can block human PD-1 from binding to human PD-L1”.
Consider `C[C@@H]1CC[C@]2(C(=O)O)CC[C@]3(C)C(=CC[C@@H]4[C@@]5(C)CC[C@H](O[C@@H]6OC[C@H](O)[C@H](O)[C@H]6O)C(C)(C)[C@@H]5CC[C@]43C)[C@@H]2[C@]1(C)O` [Compound 2], for which the dissociation constant (Kd) in test [1] was 440 nM. The “Blocking of human PD-1 binding” value in test [2] was “can block human PD-1 from binding to human PD-L1”.
For `C[C@@H]1OC(O[C@H]2C(O[C@H]3CC[C@@]4(C)C(CC[C@]5(C)C4CC=C4C6CC(C)(C)CC[C@]6(C(=O)O)CC[C@]45C)[C@]3(C)CO)OC[C@H](OC3O[C@H](CO)[C@@H](O)[C@H](O)[C@H]3O)[C@@H]2O)[C@H](O)[C@H](O)[C@H]1O` (stereo partly drawn) [Compound 3], in test [1], the Kd was found to be 2100 nM.
For `CC1(C)CC[C@]2(C(=O)O[C@@H]3O[C@H](CO)[C@@H](O)[C@H](O)[C@H]3O)CC[C@]3(C)C(=CCC4[C@@]5(C)CCC(OC6O[C@H](C(=O)O)[C@@H](O)[C@H](O)[C@H]6O)C(C)(C)C5CC[C@]43C)[C@H]2C1` (stereo partly drawn) [Compound 4], in test [1], the Kd amounted to 560 nM. In test [2], the “Blocking of human PD-1 binding” value was “can block human PD-1 from binding to human PD-L1”.
Taken in the same sequence, the figures for `CC1(C)CC[C@]2(C(=O)O)CC[C@]3(C)C(=CC[C@@H]4[C@@]5(C)CC[C@H](O)[C@@](C)(CO)[C@@H]5CC[C@]43C)[C@@H]2C1` [Compound 5] were 5360 nM and “can block human PD-1 from binding to human PD-L1”.
With `CC1(C)CC[C@]2(C(=O)O)CC[C@]3(C)C(=CC[C@@H]4[C@@]5(C)CC[C@H](O[C@@H]6O[C@H](C(=O)O)[C@@H](O)[C@H](O[C@@H]7OC[C@@H](O)[C@H](O)[C@H]7O)[C@H]6O)C(C)(C)[C@@H]5CC[C@]43C)[C@@H]2C1` [Compound 6], the Kd in test [1] was 40 nM. Further, in test [3], the “Increase of the amount of IL-2 produced by Jurkat T cells” value (“Increase of the amount of IL-2 produced” for short) is recorded as “about 30%” and the “Restoration of the ability of depleted Jurkat T cells to secrete IL-2” value (“Restoration” for short) was “can restore the ability of depleted Jurkat T cells to secrete IL-2”. In test [2], the “Blocking of human PD-1 binding” value was “can block human PD-1 from binding to human PD-L1”.
Take `C[C@@H]1O[C@@H](O[C@H]2[C@H](O[C@H]3[C@H](O[C@H]4CC[C@@]5(C)[C@@H](CC[C@]6(C)[C@@H]5CC=C5[C@@H]7CC(C)(C)C[C@@H](O)[C@]7(C)CC[C@]56C)[C@@]4(C)CO)O[C@H](C(=O)O)[C@@H](O)[C@@H]3O)O[C@H](CO)[C@H](O)[C@@H]2O)[C@H](O)[C@H](O)[C@H]1O` [Compound 7]: in test [1], the equilibrium dissociation constant (Kd) was 2190 nM. In addition, in test [2], the “Blocking of human PD-1 binding” value is recorded as “can block human PD-1 from binding to human PD-L1”.
Consider `C[C@@H]1CC[C@@]2(C(=O)O)CC[C@]3(C)C(=CCC4[C@@]5(C)C[C@@H](O)[C@H](O)C(C)(C)C5CC[C@]43C)C2[C@H]1C` (stereo partly drawn) [Compound 8], for which, in test [1], the Kd came to 5020 nM. In test [3], the “Restoration” value was “can restore the ability of depleted Jurkat T cells to secrete IL-2”. Also, in test [2], the “Blocking of human PD-1 binding” value was “can block human PD-1 from binding to human PD-L1”.
Consider `C[C@@H]1CC[C@]2(C(=O)O)CC[C@]3(C)C(=CCC4[C@@]5(C)CC[C@H](O)C(C)(C)C5CC[C@]43C)C2[C@H]1C` (stereo partly drawn) [Compound 9], for which the Kd in test [1] was found to be 4920 nM. Moreover, the “Blocking of human PD-1 binding” value in test [2] was “can block human PD-1 from binding to human PD-L1”.
Turning to `CC1(C)CC[C@]2(C(=O)O)CC[C@]3(C)C(=CCC4[C@@]5(C)CC[C@H](O)C(C)(C)C5CC[C@]43C)C2C1` (stereo partly drawn) [Compound 10], in test [1], the Kd was found to be 2710 nM. Besides, in test [3], the “Increase of the amount of IL-2 produced” value is “about 30%” and the “Restoration” value was “can restore the ability of depleted Jurkat T cells to secrete IL-2”. For the same compound, in test [2], the “Blocking of human PD-1 binding” value is recorded as “can block human PD-1 from binding to human PD-L1”.
In the case of `C[C@H]1[C@H](C)CC[C@]2(C(=O)O)CC[C@]3(C)C(=CC[C@@H]4[C@@]5(C)C[C@@H](O)[C@H](O)C(C)(C)[C@@H]5CC[C@]43C)[C@H]12` [Compound 11], in test [1], the Kd was found to be 1400 nM. Besides, in test [3], the “Increase of the amount of IL-2 produced” value was “about 12%” and the “Restoration” value is listed as “can restore the ability of depleted Jurkat T cells to secrete IL-2”. Besides, in test [2], the “Blocking of human PD-1 binding” value is reported as “can block human PD-1 from binding to human PD-L1”.
As for `CC1(C)CCC2(C(=O)O)CC[C@]3(C)C(=CCC4[C@@]5(C)C[C@@H](O)[C@H](O)C(C)(C)C5CC[C@]43C)C2C1` (stereo partly drawn) [Compound 12], the “Blocking of human PD-1 binding” value in test [2] was “can block human PD-1 from binding to human PD-L1”.
On to `C[C@H]1[C@H](C)CC[C@]2(C(=O)O)CC[C@]3(C)C(=CC[C@@H]4[C@@]5(C)C[C@@H](O)[C@@H](O)C(C)(C)[C@@H]5CC[C@]43C)[C@H]12` [Compound 13], for which, in test [1], the equilibrium dissociation constant (Kd) was 1770 nM. For the same compound, in test [3], the “Increase of the amount of IL-2 produced” value is given as “about 23%” and the “Restoration” value is reported as “can restore the ability of depleted Jurkat T cells to secrete IL-2”. In test [2], the “Blocking of human PD-1 binding” value is reported as “can block human PD-1 from binding to human PD-L1”.
